Test results published in patent US20200368198A1, “METHODS FOR INCREASING FERTILITY” (NEWSOUTH INNOVATIONS PTY LIMITED, priority 2017, published 2020).

Tested on: C57BL6 females
Experiment: Reversal design: pups born after chemotherapy followed by NMN
Type: in vivo, mice
Conditions: cisplatin 5 mg/kg i.p., NMN delivered well after chemotherapy; 6 mating rounds
Text: In Examples 2-4, it was shown that co-treatment with NMN during chemotherapy treatment could protect against infertility. Next, we decided to investigate whether NMN treatment delivered some time following chemotherapy treatment could actively reverse chemotherapy induced infertility. […] The rationale of this experimental design is to investigate whether NMN has the ability to induce regeneration of the ovary. According to the standard dogma of reproductive biology, mammals are born with a set number of follicles which are slowly released as oocytes over the course of a lifetime, with the ovaries incapable of regenerating new follicles.

NC(=O)c1ccc[n+]([C@@H]2O[C@H](COP(=O)([O-])O)[C@@H](O)[C@H]2O)c1 [NMN, nicotinamide mononucleotide]
Number of pups born (cisplatin followed by NMN): complete restoration
